37 compounds from patent US9802960B2 (MILLENNIUM PHARMACEUTICALS, INC., priority 2014, dated 2017) can be followed below.

What is called IC50 is the point on the concentration scale where inhibition reaches its midpoint. Read a low IC50 as inhibition by little substance. A word on the inhibition: it is the percentage by which the read-out fell short of the control.

The target in the first assay is Human VPS34 (Homo sapiens (Human), UniProt Q8NEB9). Put plainly: Human VPS34 enzyme assay (Adapta TR-FRET). The format is biochemical. Particulars: IC50 range class. In general terms: In TR-FRET formats the signal depends on donor and acceptor labels being close together.
Sequence of Human VPS34 (Q8NEB9 whole entry): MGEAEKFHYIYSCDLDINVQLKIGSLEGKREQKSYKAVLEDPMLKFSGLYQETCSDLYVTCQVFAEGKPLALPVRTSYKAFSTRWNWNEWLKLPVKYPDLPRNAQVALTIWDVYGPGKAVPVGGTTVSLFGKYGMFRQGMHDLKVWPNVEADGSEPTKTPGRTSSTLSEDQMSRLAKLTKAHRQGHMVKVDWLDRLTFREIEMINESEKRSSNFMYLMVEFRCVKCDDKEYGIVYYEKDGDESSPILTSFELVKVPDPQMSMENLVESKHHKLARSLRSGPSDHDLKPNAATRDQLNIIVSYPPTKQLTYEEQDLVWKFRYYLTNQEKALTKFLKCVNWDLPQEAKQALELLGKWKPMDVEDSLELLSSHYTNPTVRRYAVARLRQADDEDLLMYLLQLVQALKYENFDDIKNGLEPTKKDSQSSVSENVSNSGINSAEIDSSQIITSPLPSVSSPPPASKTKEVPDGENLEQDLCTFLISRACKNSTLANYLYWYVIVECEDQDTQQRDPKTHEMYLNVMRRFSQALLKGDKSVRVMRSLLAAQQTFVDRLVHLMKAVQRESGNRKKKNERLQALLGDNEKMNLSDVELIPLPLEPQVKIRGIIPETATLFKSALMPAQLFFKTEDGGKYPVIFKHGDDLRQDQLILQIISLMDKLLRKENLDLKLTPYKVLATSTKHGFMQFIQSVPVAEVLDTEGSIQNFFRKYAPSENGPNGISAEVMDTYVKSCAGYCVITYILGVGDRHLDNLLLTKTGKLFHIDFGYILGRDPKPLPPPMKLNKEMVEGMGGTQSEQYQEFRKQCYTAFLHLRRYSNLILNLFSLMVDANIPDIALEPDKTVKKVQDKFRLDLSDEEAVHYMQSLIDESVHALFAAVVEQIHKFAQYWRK
In turn, `Cc1nccc(Nc2cc(-c3cnc(C)c(NS(=O)(=O)c4ccc(F)cc4F)c3)ccn2)n1` [Compound I-291, 2,4-difluoro-N-{6-methyl-2′-[(2-methylpyrimidin-4-yl)amino]-3,4′-bipyridin-5-yl}benzenesulfonamide] returned an IC50 of less than 10 nM.

`CC(=O)Nc1cc(-c2cnc(N)c(S(=O)(=O)NCc3cccnc3)c2)ccn1` [Compound I-19, N-{6-amino-5-[(pyridin-3-ylmethyl)sulfamoyl]-3,4′-bipyridin-2′-yl}acetamide] displayed an IC50 of 50 to 100 nM.

The assay is the same for the next values; noted with them: compound concentration 1.11 μM.
Consider `CC(=O)Nc1cc(-c2cnc(Cl)c(S(=O)(=O)N[C@H](CO)c3ccccc3)c2)ccn1` [Compound I-330, N-(6-chloro-5-{[(1S)-2-hydroxy-1-phenylethyl]sulfamoyl}-3,4′-bipyridin-2′-yl)acetamide], for which the “Percent Inhibition” value is on record as greater than 99%.

Still in this assay, the particulars now being: compound concentration 1.11 μM; read-out: Percent Inhibition.
For the compound `COc1ncc(-c2ccnc(NC(C)=O)c2)cc1NC(=O)c1ccc(F)cc1F` [Compound I-347, N-(2′-acetamido-6-methoxy-3,4′-bipyridin-5-yl)-2,4-difluorobenzamide], the inhibition at 1.11 µM came to 22%.

For `CC(=O)Nc1cc(-c2cncc(S(=O)(=O)NC(C)(C)C)c2C)ccn1` [Compound I-462, N-(5-(N-(tert-butyl)sulfamoyl)-4-methyl-[3,4′-bipyridin]-2′-yl)acetamide], the inhibition at 1.11 µM was determined as 98%.

On to `Cc1ccnc(Nc2cc(-c3cnc(Cl)c(NS(=O)(=O)c4ccc(F)cc4F)c3C)ccn2)n1` [Compound I-293, N-{6-chloro-4-methyl-2′-[(4-methylpyrimidin-2-yl)amino]-3,4′-bipyridin-5-yl}-2,4-difluorobenzene sulfonamide], for which the inhibition at 1.11 µM was greater than 99%.

Take `CC(=O)Nc1cc(-c2cncc(S(=O)(=O)N(C)c3ccccc3)c2)ccn1` [Compound I-365, N-{5-[methyl(phenyl)sulfamoyl]-3,4′-bipyridin-2′-yl}acetamide]: the inhibition at 1.11 µM was greater than 99%.

On to `CC(=O)Nc1cc(-c2cnc(C)c(NS(=O)(=O)N3CCCC3)c2)ccn1` [Compound I-274, N-{6-methyl-5-[(pyrrolidin-1-ylsulfonyl)amino]-3,4′-bipyridin-2′-yl}acetamide], for which the inhibition at 1.11 µM was greater than 99%.

On to `CC(=O)Nc1cc(-c2cnc(C)c(NS(=O)(=O)c3cc(Cl)ccc3Cl)c2)ccn1` [Compound I-111, N-(5-{[(2,5-dichlorophenyl)sulfonyl]amino}-6-methyl-3,4′-bipyridin-2′-yl)acetamide], for which the inhibition at 1.11 µM was greater than 99%.

`CNS(=O)(=O)c1cc(-c2ccnc(NC(C)=O)c2)cnc1N` [Compound I-89, N-[6-amino-5-(methylsulfamoyl)-3,4′-bipyridin-2′-yl]acetamide]: the inhibition at 1.11 µM was greater than 99%.

`Cc1c(-c2ccnc(Nc3ccncn3)c2)cnc(Cl)c1NS(=O)(=O)c1ccc(F)cc1F` [Compound I-282, N-[6-chloro-4-methyl-2′-(pyrimidin-4-ylamino)-3,4′-bipyridin-5-yl]-2,4-difluorobenzenesulfonamide]: the inhibition at 1.11 µM stood at 94%.

As for `Cc1ncc(-c2ccnc(Nc3ccncn3)c2)cc1NS(=O)(=O)c1ccc(F)cc1F` [Compound I-239], the inhibition at 1.11 µM is greater than 99%.

`CC(=O)Nc1cc(-c2cnc3cn[nH]c3c2)ccn1` [Compound I-116, N-[4-(1H-pyrazolo[4,3-b]pyridin-6-yl)pyridin-2-yl]acetamide]: the inhibition at 1.11 µM was determined as 68%.

For `CC(=O)Nc1cc(-c2cncc(S(=O)(=O)N3CCC(F)(F)CC3)c2)ccn1` [Compound I-9, N-{5-[(4,4-difluoropiperidin-1-yl)sulfonyl]-3,4′-bipyridin-2′-yl}acetamide], the inhibition at 1.11 µM is greater than 99%.

`Cc1nccc(Nc2cc(-c3cnc(C)c(OCCN(C)C)c3)ccn2)n1` [Compound I-379, 5-[2-(dimethylamino)ethoxy]-6-methyl-N-(2-methylpyrimidin-4-yl)-3,4′-bipyridin-2′-amine]: the inhibition at 1.11 µM was found to be 47%.

Regarding `Cc1nccc(Nc2cc(-c3cnc(C)c(NS(=O)(=O)c4ccc(F)cc4F)c3)ccn2)n1` [Compound I-291, 2,4-difluoro-N-{6-methyl-2′-[(2-methylpyrimidin-4-yl)amino]-3,4′-bipyridin-5-yl}benzenesulfonamide], the inhibition at 1.11 µM was found to be 95%.

With `CC(=O)Nc1cc(-c2cnc(C)c(NS(=O)(=O)c3ccc(C(F)(F)F)cc3)c2)ccn1` [Compound I-90, N-[6-methyl-5-({[4-(trifluoromethyl)phenyl]sulfonyl}amino)-3,4′-bipyridin-2′-yl]acetamide], the inhibition at 1.11 µM was greater than 99%.

For the compound `COC(=O)Nc1cc(-c2cnc3[nH]ncc3c2)ccn1` [Compound I-38, Methyl [4-(1H-pyrazolo[3,4-b]pyridin-5-yl)pyridin-2-yl]carbamate], the inhibition at 1.11 µM is greater than 99%.

As to `CC(=O)Nc1cc(-c2cnc(N)c(S(=O)(=O)NCC3CC3)c2C)ccn1` [Compound I-49, N-{6-amino-5-[(cyclopropylmethyl)sulfamoyl]-4-methyl-3,4′-bipyridin-2′-yl}acetamide], the inhibition at 1.11 µM was greater than 99%.

`CC(=O)Nc1cc(-c2cnc(C)c(N3CCCN(C)S3(=O)=O)c2)ccn1` [Compound I-343, N[6-methyl-5-(6-methyl-1,1-dioxido-1,2,6-thiadiazinan-2-yl)-3,4′-bipyridin-2′-yl]acetamide]: the inhibition at 1.11 µM was greater than 99%.

Take `COc1ncc(-c2ccnc(Nc3ccnc(C)n3)c2)cc1S(=O)(=O)NC1CCC1` [Compound I-224, N-cyclobutyl-6-methoxy-2′-[(2-methylpyrimidin-4-yl)amino]-3,4′-bipyridine-5-sulfonamide]: the inhibition at 1.11 µM came to 99%.

In the case of `CC(=O)Nc1cc(-c2cnc(C)c(NS(=O)(=O)c3cc(C)ccc3C)c2)ccn1` [Compound I-178, N-(5-{[(2,5-dimethylphenyl)sulfonyl]amino}-6-methyl-3,4′-bipyridin-2′-yl)acetamide], the inhibition at 1.11 µM was greater than 99%.

Regarding `CC(=O)Nc1cc(-c2cc(S(C)(=O)=O)c[n+]([O-])c2)ccn1` [Compound I-191, N-{4-[5-(methylsulfonyl)-1-oxidopyridin-3-yl]pyridin-2-yl}acetamide], the inhibition at 1.11 µM stood at 77%.

Consider `Cc1nccc(Nc2cc(-c3cnc(C)c(C(=O)O)c3)ccn2)n1` [Compound I-253, 6-methyl-2′-((2-methylpyrimidin-4-yl)amino)-[3,4′-bipyridine]-5-carboxylic acid], for which the inhibition at 1.11 µM amounted to 96%.

On to `Cc1cc(Nc2cc(-c3cnc(Cl)c(NS(=O)(=O)c4ccc(F)cc4F)c3C)ccn2)ccn1` [Compound I-272, N-{6-chloro-4-methyl-2′-[(2-methylpyridin-4-yl)amino]-3,4′-bipyridin-5-yl}-2,4-difluorobenzenesulfonamide], for which the inhibition at 1.11 µM was greater than 99%.

`Cc1nccc(Nc2cc(-c3cnc(Cl)c(NS(=O)(=O)c4ccc(F)cc4F)c3C)ccn2)n1` [Compound I-299, N-{6-chloro-4-methyl-2′-[(2-methylpyrimidin-4-yl)amino]-3,4′-bipyridin-5-yl}-2,4-difluorobenzenesulfonamide]: the inhibition at 1.11 µM was determined as 98%.

For the compound `CCc1c(-c2ccnc(NC(C)=O)c2)cnc(Cl)c1NS(=O)(=O)c1ccc(F)cc1F` [Compound I-469, N-(6-chloro-5-{[(2,4-difluorophenyl)sulfonyl]amino}-4-ethyl-3,4′-bipyridin-2′-yl)acetamide], the inhibition at 1.11 µM is greater than 99%.

Turning to `Cc1nccc(Nc2cc(-c3cnc(C)c(C(=O)N4CCCC4)c3)ccn2)n1` [Compound I-315, {6-methyl-2′-[(2-methylpyrimidin-4-yl)amino]-3,4′-bipyridin-5-yl}(pyrrolidin-1-yl)methanone], the inhibition at 1.11 µM amounted to 92%.

For `CC(=O)Nc1cc(-c2cnc(C)c(NS(=O)(=O)c3ccc(F)cc3F)c2)c(C)cn1` [Compound I-177, N-(5-{[(2,4-difluorophenyl)sulfonyl]amino}-5′,6-dimethyl-3,4′-bipyridin-2′-yl)acetamide], the inhibition at 1.11 µM is greater than 99%.

As for `CC(=O)Nc1cc(-c2cnc(C)c(N(C)C(=O)c3ccc(F)cc3F)c2)ccn1` [Compound I-398, N-(2′-acetamido-6-methyl-3,4′-bipyridin-5-yl)-2,4-difluoro-N-methylbenzamide], the inhibition at 1.11 µM came out at 93%.

In the case of `CC(=O)Nc1cc(-c2cnc(C)c(N3CC=CS3(=O)=O)c2)ccn1` [Compound I-416, N-[5-(1,1-dioxidoisothiazol-2(3H)-yl)-6-methyl-3,4′-bipyridin-2′-yl]acetamide], the inhibition at 1.11 µM is greater than 99%.

Consider `CC(=O)Nc1cc(-c2cnc(N)c(S(=O)(=O)NCc3cccnc3)c2)ccn1` [Compound I-19, N-{6-amino-5-[(pyridin-3-ylmethyl)sulfamoyl]-3,4′-bipyridin-2′-yl}acetamide], for which the inhibition at 1.11 µM is greater than 99%.

Regarding `CC(=O)Nc1cc(-c2cnc(C)c(NS(=O)(=O)N3CCC3)c2)ccn1` [Compound I-257, N-{5-[(azetidin-1-ylsulfonyl)amino]-6-methyl-3,4′-bipyridin-2′-yl}acetamide], the inhibition at 1.11 µM is greater than 99%.

Consider `Cc1nccc(Nc2cc(-c3cnc(C)c(Oc4ccccc4)c3)ccn2)n1` [Compound I-475, 6-methyl-N-(2-methylpyrimidin-4-yl)-5-phenoxy-3,4′-bipyridin-2′-amine], for which the inhibition at 1.11 µM was greater than 99%.

`Cc1ncc(-c2ccnc(Nc3ccc(C#N)cn3)c2)cc1NS(=O)(=O)c1ccc(F)cc1F` [Compound I-228, N-{2′-[(5-cyanopyridin-2-yl)amino]-6-methyl-3,4′-bipyridin-5-yl}-2,4-difluorobenzene sulfonamide]: the inhibition at 1.11 µM is greater than 99%.

On to `CC(=O)Nc1cc(-c2cnc(N)c(C(=O)N3CCC3)c2)ccn1` [Compound I-200, N-[6-amino-5-(azetidin-1-ylcarbonyl)-3,4′-bipyridin-2′-yl]acetamide], for which the inhibition at 1.11 µM is greater than 99%.

As for `CCOC(=O)Nc1cc(-c2cnc(C)c(NS(=O)(=O)c3ccc(F)cc3F)c2)ccn1` [Compound I-389, ethyl (5-{[(2,4-difluorophenyl)sulfonyl]amino}-6-methyl-3,4′-bipyridin-2′-yl)carbamate], the inhibition at 1.11 µM worked out at 95%.

Take `Cc1nccc(Nc2cc(-c3cnc(C)c(C(=O)N4CC(F)(F)C4)c3)ccn2)n1` [Compound I-221, (3,3-difluoroazetidin-1-yl){6-methyl-2′-[(2-methylpyrimidin-4-yl)amino]-3,4′-bipyridin-5-yl}methanone]: the inhibition at 1.11 µM is 97%.

Turning to `Cc1nccc(Nc2cc(-c3cnc(C)c(NC(=O)N4CC(F)(F)C4)c3)ccn2)n1` [Compound I-482, 3,3-difluoro-N-{6-methyl-2′-[(2-methylpyrimidin-4-yl)amino]-3,4′-bipyridin-5-yl}azetidine-1-carboxamide], the inhibition at 1.11 µM was greater than 99%.
